Measurements taken from patent US7166706B2 (priority 2001, dated 2007).
Like-named read-outs stand apart in the source and are kept apart here.

Experiments:
[1] = tested on: Magnaporthe grisea strain P1.2; format: cell-based; conditions: for mean percentage of growth of the M. grisea fungus: 5th day, control = 100%
M. grisea spores = format: cell-based, Magnaporthe grisea
Botrytis cinerea = format: cell-based
Pythium ultimum = format: cell-based
Ustilago nuda = format: cell-based
[2] = tested on: Mycosphaerella graminicola; format: cell-based
yeast reductoisomerase [3] = molecular target: T1, yeast reductoisomerase (Saccharomyces cerevisiae, UniProt P06168); experiment: Stoichiometry of binding of the inhibitors to the yeast reductoisomerase; format: biochemical; conditions: for stoichiometry of binding of the inhibitor to the yeast reductoisomerase: 0.1 nmol inhibitor completely inhibits 0.1 nmol enzyme; for type of inhibition (reversibility): yeast reductoisomerase
Method: FIGS. 6A and 6B: Stoichiometry for binding of the inhibitors dimethylphosphinoyl-2-hydroxyacetate and N-hydroxy-N-isopropyloxamate to the yeast reductoisomerase. The inhibitors Hoe 704 [A] and IpOHA [B] (0.1 nmol) are incubated with varying amounts of enzyme (0 to 0.4 nmol) for 20 minutes at 25° C. with 25 nmol of NADPH and 0.25 μmol of Mg^2+ in a volume of 10 μl. The enzyme activity measurements are carried out at 25° C. in 1 ml of the following reaction medium: 10 mM MgCl2, 250 μM NADPH, 0.48 mM AHB, and in 50 mM sodium Hepes buffer, pH 7.5.
The kinetic parameters for the yeast reductoisomerase were determined by following the evolution of the enzyme reaction in the spectrophotometer under saturating conditions with respect to magnesium, to NADPH and to AHB or AL substrate. All the enzyme activity measurements were carried out in a quartz cuvette with an optical path of 1 cm, containing sodium Hepes buffer (50 mM, pH 7.5), 10 mM MgCl2, 250 μM NADPH, in a final volume of 1 ml, at 25° C. The enzyme reaction was initiated by adding 0.48 mM of AHB or of AL. The evolution of this reaction was followed by virtue of the decrease in absorption of NADPH at 340 nm.
The study of the stoichiometry of binding of the inhibitors N-hydroxy-N-isopropyl-oxamate and dimethylphosphinoyl-2-hydroxyacetate was carried out by incubating varying amounts of enzyme (from 0.1 to 0.4 nmol) with a constant amount of inhibitor for 20 minutes, with 25 nmol of NADPH and 0.25 μmol of MgCl2, in a final volume of 10 μl. The reactions are initiated by adding 0.48 mM AHB in 50 mM sodium Hepes buffer, pH 7.5, containing 10 mM MgCl2.
In the presence of 0.1 nmol of dimethylphosphinoyl-2-hydroxyacetate, an enzyme activity is detected only with amounts of enzyme greater than […]. Similarly, in the presence of 0.1 nmol of N-hydroxy-N-isopropyloxamate, an enzyme activity is detected only for amounts of enzyme greater than 0.1 nmol (FIG. 6). In addition, for these two inhibitors, when the enzyme is in excess relative to the inhibitor in the reaction medium, the enzyme activities increase in parallel with those of the control without inhibitor. […] In fact, in the case of irreversible inhibition, in the presence of a low amount of enzyme, all the enzyme complexes with the inhibitor. The enzyme activity is then zero, since there is no longer any free enzyme in the reaction medium. When the amount of enzyme present in the reaction medium is greater than the amount of inhibitor, the free enzyme in excess in the medium then behaves like the control without inhibitor (straight line parallel to the control).

yeast reductoisomerase [4] = molecular target: T1, yeast reductoisomerase; experiment: Kinetics of inhibition of the yeast reductoisomerase (NADPH absorbance at 340 nm); format: biochemical; conditions: for mechanism of inhibition with respect to the AHB substrate: 1/m3 linear in AHB concentration, enzyme 110 nM; for k0, inhibitor/enzyme association constant: yeast reductoisomerase 110 nM, 25° C., pH 7.5, AHB varied
Method: (§1) FIGS. 7A and 7B: Kinetics of inhibition of the yeast reductoisomerase in the presence of the inhibitors dimethylphosphinoyl-2-hydroxyacetate [A] and N-hydroxy-N-isopropyloxamate [B]. The enzyme activity measurements are carried out at 25° C. in 1 ml of the following reaction medium: 10 mM MgCl2, 250 μM NADPH, 0.48 mM AHB in 50 mM sodium Hepes buffer, pH 7.5, and in the presence of enzyme 110 nM.
The reactions are initiated by simultaneously adding varying amounts of inhibitors dimethylphosphinoyl-2-hydroxyacetate [A] and N-hydroxy-N-isopropyloxamate [B] (from 2 μM to 30 μM) to the reaction medium. The curves are plotted according to the equation (1), which makes it possible to determine the values for Kobs, the apparent rate of formation of the enzyme-inhibitor complex.
as §1, with “FIGS. 8A and 8B:” for “FIGS. 7A and 7B:”, “8A and 8B: Kinetics of” for “7A and 7B: Kinetics of”, “of enzyme at 110 nM.” for “of enzyme 110 nM.”
The reactions are initiated by simultaneously adding varying amounts of inhibitors [A] and [B] (from 2 μM to 50 μM) to the reaction medium.
FIGS. 9A and 9B: Determination of the association constant k0 for the dimethylphosphinoyl-2-hydroxyacetate [A] and for the N-hydroxy-N-isopropyloxamate [B] on the yeast reductoisomerase using the representation 1/Kobs as a function of the concentration of substrate AHB. The enzyme activity measurements are carried out at 25° C. in 1 ml of the following reaction medium: 10 mM MgCl2, 250 μM NADPH, from 125 μM to 2.375 mM AHB, and in 50 mM sodium Hepes buffer, pH 7.5, and in the presence of enzyme at 110 nM. The reactions are initiated by simultaneously adding varying amounts of substrate AHB (from 125 μM to 2.375 mM) and the inhibitors [A] (10 μM) and [B] (15 μM) to the reaction medium.
The curves are plotted according to the equation (3), which makes it possible to determine the values for k0, the rate of association of the inhibitor with the enzyme.
The effect of the inhibitors N-hydroxy-N-isopropyloxamate and dimethylphosphinoyl-2-hydroxyacetate on the yeast reductoisomerase was followed over time by measuring the decrease in absorbence of NADPH at 340 nm, in a spectrophotometer. […]
Equation (1): OD340=m1+(m2−m1).e^(−m3.t) where the parameters are as follows: • OD340 is the optical density measured on a spectrophotometer at 340 nm at time “t” • m1 the optical density when “t” tends toward infinity • m2 the initial optical density • m3 the product of the concentration of inhibitor multiplied by the apparent disappearance constant for NADPH. […]

[5] = tested on: all the sensitive fungal species; format: cell-based
plant reductoisomerase = plant reductoisomerase (Spinacia oleracea, UniProt Q01292); conditions: cited from earlier work
[6] = Magnaporthe grisea, liquid minimum medium (Table 5; text gives concentrations in μM)

T1 sequence (P06168 48-395): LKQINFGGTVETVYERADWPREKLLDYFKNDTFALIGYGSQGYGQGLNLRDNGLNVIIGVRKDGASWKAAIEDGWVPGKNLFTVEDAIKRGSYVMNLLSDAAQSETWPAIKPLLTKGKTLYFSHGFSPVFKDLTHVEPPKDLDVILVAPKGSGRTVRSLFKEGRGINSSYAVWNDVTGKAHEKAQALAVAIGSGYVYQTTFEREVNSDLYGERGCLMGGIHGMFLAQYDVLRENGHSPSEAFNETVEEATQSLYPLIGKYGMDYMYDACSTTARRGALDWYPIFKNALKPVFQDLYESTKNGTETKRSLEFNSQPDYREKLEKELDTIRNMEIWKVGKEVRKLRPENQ
Chain of plant reductoisomerase (Q01292 73-595): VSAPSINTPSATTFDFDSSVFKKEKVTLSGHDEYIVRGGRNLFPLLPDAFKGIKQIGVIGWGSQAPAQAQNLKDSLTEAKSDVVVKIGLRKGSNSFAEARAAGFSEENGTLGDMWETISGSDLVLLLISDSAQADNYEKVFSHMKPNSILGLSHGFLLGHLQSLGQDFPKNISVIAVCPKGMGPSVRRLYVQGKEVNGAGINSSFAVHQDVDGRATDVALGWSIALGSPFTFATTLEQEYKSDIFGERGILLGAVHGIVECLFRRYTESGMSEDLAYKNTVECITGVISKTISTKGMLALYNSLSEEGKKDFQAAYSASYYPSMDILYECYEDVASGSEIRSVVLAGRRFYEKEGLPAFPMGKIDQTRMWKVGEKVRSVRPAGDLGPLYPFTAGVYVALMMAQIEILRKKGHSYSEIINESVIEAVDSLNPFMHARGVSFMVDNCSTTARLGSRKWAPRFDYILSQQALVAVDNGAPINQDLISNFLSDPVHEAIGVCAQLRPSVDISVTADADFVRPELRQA

## CC(C)N(O)C(=O)C(=O)O [N-hydroxy-N-isopropyloxamate]
[1]; 0.03 μM inhibitor, MM + leucine, valine, isoleucine 0.3 mM (MM + ILV)
  mean percentage of growth of the M. grisea fungus: 77.5%
[1]; 0.03 μM inhibitor, minimum medium (MM)
  mean percentage of growth of the M. grisea fungus: 92%
[1]; 0.1 μM inhibitor, MM + ILV 0.3 mM
  mean percentage of growth of the M. grisea fungus: 83.5%
[1]; 0.1 μM inhibitor, minimum medium (MM)
  mean percentage of growth of the M. grisea fungus: 89%
[1]; 0.3 μM inhibitor, MM + ILV 0.3 mM
  mean percentage of growth of the M. grisea fungus: 81%
[1]; 0.3 μM inhibitor, minimum medium (MM)
  mean percentage of growth of the M. grisea fungus: 72%
[1]; 1 μM inhibitor, MM + ILV 0.3 mM
  mean percentage of growth of the M. grisea fungus: 72.5%
[1]; 1 μM inhibitor, minimum medium (MM)
  mean percentage of growth of the M. grisea fungus: 56%
[1]; 3 μM inhibitor, MM + ILV 0.3 mM
  mean percentage of growth of the M. grisea fungus: 71.5%
[1]; 3 μM inhibitor, minimum medium (MM)
  mean percentage of growth of the M. grisea fungus: 13%
[1]; ILV at 0.3 mM, whatever the inhibitor concentration
  toxicity on growth when minimum medium is supplemented with valine, leucine and isoleucine: lifted
[1]; Magnaporthe grisea
  Level of sensitivity to IpOHA: Sensitive
[1]; [6]
  ID50: concentration which inhibits fungal growth by 50%: 1
  ID80: concentration which inhibits fungal growth by 80%: 3
[1]; inhibitor 0.3 to 1 μM, MM medium, from the 3rd day
  inhibition of fungal growth: approximately 50%
[1]; minimum medium, 5th day of growth
  ID80 (concentration of inhibitor such that the inhibition in fungal growth is 80%): 1000 nM
[1]; minimum medium, from the 3rd day of growth
  concentration from which inhibition of growth is observed: ≥ 0.3 µM
M. grisea spores; 10 mM, in water or in minimum medium, at 24 and 72 hours
  spore germination: does not inhibit
M. grisea spores; 1 and 3 μM, minimum medium, days 0 and 2
  spore germination: not blocked
Botrytis cinerea
  Level of sensitivity to IpOHA: Resistant
  effect on growth at the highest concentration used: not affected
Pythium ultimum
  ID50: concentration which inhibits fungal growth by 50%: 10
  ID80: concentration which inhibits fungal growth by 80%: 30
  Level of sensitivity to IpOHA: Moderately sensitive
  concentration from which growth is inhibited: ≥ 10 µM
Ustilago nuda
  ID50: concentration which inhibits fungal growth by 50%: 3
  ID80: concentration which inhibits fungal growth by 80%: 30
  IpOHA concentrations for which inhibition is lifted by isoleucine, leucine and valine: less than 30 μM
  Level of sensitivity to IpOHA: Moderately sensitive
  concentration from which growth is inhibited: ≥ 10 µM
[2]
  ID50: concentration which inhibits fungal growth by 50%: 1
  ID80: concentration which inhibits fungal growth by 80%: 3
  Level of sensitivity to IpOHA: Sensitive
  concentration from which growth is inhibited: ≥ 0.3 µM
Yeast reductoisomerase [3]
  stoichiometry of binding of the inhibitor to the yeast reductoisomerase: 1 mol of inhibitor per mole of enzyme
  type of inhibition (reversibility): irreversible inhibitors
Yeast reductoisomerase [3]; 0.1 nmol inhibitor, 20 min preincubation with NADPH and Mg2+
  amount of enzyme above which an enzyme activity is detected: greater than 0.1 nmol
Yeast reductoisomerase [4]
  mechanism of inhibition with respect to the AHB substrate: competitive
  k0, inhibitor/enzyme association constant: 12 433 M^−1.s^−1
[5]
  toxicity when minimum medium is supplemented with isoleucine, leucine and valine: lifted
Plant reductoisomerase
  k0, inhibitor/enzyme association constant: 1900 M⁻¹ s⁻¹

## CP(C)(=O)C(O)C(=O)O (centres unmarked) [dimethylphosphinoyl-2-hydroxyacetate]
[1]; inhibitor at 2 mM, MM medium, 6th and 7th day of growth
  decrease in growth compared to control without inhibitor: 50%
Yeast reductoisomerase [3]
  stoichiometry of binding of the inhibitor to the yeast reductoisomerase: 1 mol of inhibitor per mole of enzyme
  type of inhibition (reversibility): irreversible inhibitors
Yeast reductoisomerase [4]
  mechanism of inhibition with respect to the AHB substrate: competitive
  k0, inhibitor/enzyme association constant: 7721 M⁻¹ s⁻¹
Plant reductoisomerase
  k0, inhibitor/enzyme association constant: 22 000 M^−1.s^−1
